Literature values as cited in publication PMC4110205 (Toxicology and applied pharmacology, 2014).

Molecular target: T1, hFMO2.1 (Homo sapiens, UniProt Q99518)
T1 sequence (Q99518 1-535): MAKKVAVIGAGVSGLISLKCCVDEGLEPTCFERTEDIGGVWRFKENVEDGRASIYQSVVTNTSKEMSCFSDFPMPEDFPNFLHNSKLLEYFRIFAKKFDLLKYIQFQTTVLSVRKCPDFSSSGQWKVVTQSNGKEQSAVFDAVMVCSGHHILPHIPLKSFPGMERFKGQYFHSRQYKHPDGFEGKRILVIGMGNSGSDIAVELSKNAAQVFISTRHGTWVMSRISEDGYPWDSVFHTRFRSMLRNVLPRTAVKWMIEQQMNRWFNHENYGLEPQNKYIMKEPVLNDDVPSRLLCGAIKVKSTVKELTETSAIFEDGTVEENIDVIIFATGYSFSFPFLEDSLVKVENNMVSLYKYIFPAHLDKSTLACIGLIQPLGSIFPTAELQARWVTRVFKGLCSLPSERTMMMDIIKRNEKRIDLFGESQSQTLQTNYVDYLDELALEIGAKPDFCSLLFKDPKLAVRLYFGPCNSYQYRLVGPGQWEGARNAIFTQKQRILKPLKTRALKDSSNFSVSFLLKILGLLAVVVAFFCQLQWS
Details: expressed hFMO2; ref Henderson et al., 2004

`NC(N)=S` [Thiourea] and `NC(=S)Nc1ccccc1` [phenylthiourea] are within 1.5-fold of each other in Km: 27 µM for the first, 29 µM for the second.

First: S=C1NCCN1 [ethylenethiourea]
Second: NC(=S)Nc1cccc2ccccc12 [α-naphthylthiourea]
The Km of the first is 3-fold lower: 14 µM for the first, 42 µM for the second.

First: NC(N)=S [Thiourea]
Second: NC(=S)Nc1ccccc1 [phenylthiourea]
The kcat of the first is 2.1-fold higher: 0.85 s⁻¹ for the first, 0.4 s⁻¹ for the second.

`S=C1NCCN1` [ethylenethiourea] and `NC(=S)Nc1cccc2ccccc12` [α-naphthylthiourea] are within 1.5-fold of each other in kcat: 0.8 s⁻¹ for the first, 0.55 s⁻¹ for the second.
